Measurements: article PMC3390344, “Antibacterial Activity and Mechanism of a Scorpion Venom Peptide Derivative In Vitro and In Vivo” (PLoS ONE, 2012)
Ends that are not written are not given here.

Key:
B. subtilis AB91021 = experiment: MIC, broth microdilution (CLSI); type: cell-based, Bacillus subtilis; details: B. subtilis AB91021, Gram-positive, 96-well
Description: (§1) S. aureus AB94004, S. aureus ATCC 25923, E. coli AB94012, E. coli ATCC 25922, Pseudomonas aeruginosa AB93066, Bacillus thuringiensis AB92037, Bacillus subtilis AB91021, and Micrococcus luteus AB93113 were purchased from the China Center of Type Culture Collection (CCTCC).
(§2) The MIC was determined via a microdilution assay in 96-well microtiter plates according to the broth microdilution guideline of Clinical and Laboratory Standards Institute (CLSI).

B. thuringiensis AB92037 = experiment: MIC, broth microdilution (CLSI); type: cell-based, Bacillus thuringiensis; details: B. thuringiensis AB92037, Gram-positive, 96-well
Description: as §1, §2

E. coli AB94012 = type: cell-based; details: E. coli AB94012, Gram-negative; broth microdilution, 96-well
Description: These peptides were used to determine the inhibitory activities against the representative Gram-positive bacteria S. aureus AB94004 and the representative Gram-negative bacteria E. coli AB94012.
as §1, §2

E. coli ATCC 25922 = experiment: MIC, broth microdilution (CLSI); type: cell-based; details: E. coli ATCC 25922, Gram-negative, 96-well
Description: as §1, §2

S. aureus ATCC 25923 = experiment: MIC, broth microdilution (CLSI); type: cell-based; details: S. aureus ATCC 25923, Gram-positive, 96-well
Description: as §1, §2

P. aeruginosa AB93066 = experiment: MIC, broth microdilution (CLSI); type: cell-based, Pseudomonas aeruginosa; details: P. aeruginosa AB93066, Gram-negative, 96-well
Description: as §1, §2

P. aeruginosa A092994 = experiment: MIC, broth microdilution (CLSI); type: cell-based, Pseudomonas aeruginosa; details: P. aeruginosa A092994, clinical isolate
Description: (§3) Clinical isolated Pseudomonas aeruginosa strains A092994, A093052, A093056, A093085 and A093115 were obtained from Hubei Maternal and Child Health Hospital.
as §2

P. aeruginosa A093052 = experiment: MIC, broth microdilution (CLSI); type: cell-based, Pseudomonas aeruginosa; details: P. aeruginosa A093052, clinical isolate
Description: as §3, §2

P. aeruginosa A093056 = experiment: MIC, broth microdilution (CLSI); type: cell-based, Pseudomonas aeruginosa; details: P. aeruginosa A093056, clinical isolate
Description: as §3, §2

P. aeruginosa A093085 = experiment: MIC, broth microdilution (CLSI); type: cell-based, Pseudomonas aeruginosa; details: P. aeruginosa A093085, clinical isolate
Description: as §3, §2

P. aeruginosa A093115 = experiment: MIC, broth microdilution (CLSI); type: cell-based, Pseudomonas aeruginosa; details: P. aeruginosa A093115, clinical isolate
Description: as §3, §2

S. aureus = S. aureus mouse skin abrasion and infection model; type: in vivo, mouse (BALB/c)
Description: Female BALB/c mice weighing 18–20 g were purchased from the Hubei Research Center of Laboratory Animals. All animal studies were approved by the Institutional Animal Care and Use Committee of Wuhan University.
Kn2-7 or BmKn2 was prepared in gel form in 0.5% hydroxypropylcellulose to a final concentration of 5 mg/mL.
Mice were injected with 150 mg/kg of cyclophosphamide 4 days prior to infection. Subsequently, the mice were injected with 100 mg/kg of cyclophosphamide 1 day prior to infection. After being anesthetized, the dorsal skin of the mice was shaved, and abrasions were produced in a 1×1 cm^2 area using a blade. These abrasion wounds damaged only the stratum corneum and upper layer of the epidermis, but not the dermis. Five minutes later, the wounds were inoculated with 20 µl of S. aureus (10^7–10^8 CFUs) using a micropipettor. A group of mice was killed 4 h after infection to control for the infectious dose. Four hours after infection, the wounds of the other mice were smeared with 20 µl of 5 mg/mL gel or a placebo gel, which was used as a negative control. The treatment lasted for 4 days, with two peptide gel applications being performed daily (morning and evening at 8 h intervals). After 4 days of treatment, the mice were killed, and the wound area of the skin was immediately excised and homogenized. Suitable dilutions of the homogenates were plated on LB plates to determine the number of living bacteria (CFUs).
After the animals were euthanized, biopsy specimens of the excised wound area of the skin were collected and immediately fixed in phosphate-buffered formalin (10%, pH = 7.4). Then, the biopsy specimens were embedded in paraffin and stained with hematoxylin and eosin.
In each experiment, the mean CFU was calculated using log10-transformed data. Based on the averages of three experiments, the mean, range, and coefficient of variation were calculated.

S. aureus AB94004 = experiment: Bactericidal assay (time-killing); type: cell-based; details: samples at 0, 5, 15, 30, 60 min, colony counts, average of three dishes
Description: Figure 5 Bactericidal assays of the Kn2-7 and BmKn2 peptides against S. aureus and E. coli AB94012. Set point indicates untreated bacteria, and 0 minutes was defined as the time of the first sample collection, which was immediately after mixing bacteria and Kn2-7 or BmKn2. The other samples were collected at 5 min, 15 min, 30 min or 60 min. All of the counts were the average of three dishes, and the experiment was repeated at least three times. (A) Time-killing curve of Kn2-7 against S. aureus AB94004. (B) Time-killing curve of BmKn2 against S. aureus AB94004. (C) Time-killing curve of Kn2-7 against E. coli AB94012.
Bactericidal curves for Kn2-7 and BmKn2 were determined against S. aureus AB94004 and E. coli AB94012. A 400 µl aliquot of the peptide solution was added to 1,600 µl of a bacterial suspension. At each time point, 200 µl of the treated bacterial suspension was transferred to a sterilized 1.5-ml tube. After centrifugation at 1,000×g for 5 min, the supernatant was removed, and the pellet was resuspended in 200 µl of LB medium. The bacterial suspensions were placed on agar plates and incubated at 37°C until viable colonies could be counted.

HIV-1 = details: by direct interaction with viral particle; cited from earlier work
Description: In a previous study by our group, we characterized an antimicrobial peptide, BmKn2, derived from the venom of the scorpion Mesobuthus martensii Karsch. In the present study, a derivative of BmKn2, was designed to increase the antibacterial activity and reduce the hemolytic activity. […] In addit ...

Row | Substance | MIC (B. subtilis AB91021) | MIC (B. thuringiensis AB92037) | MIC (E. coli AB94012) | MIC (E. coli ATCC 25922) | MIC (S. aureus ATCC 25923) | MIC (P. aeruginosa AB93066) | MIC (P. aeruginosa A092994) | MIC (P. aeruginosa A093052) | MIC (P. aeruginosa A093056) | MIC (P. aeruginosa A093085) | MIC (P. aeruginosa A093115) | Cutaneous viable counts (colony counts) of S. aureus (S. aureus; female BALB/c mice, cyclophosphamide-pretreated, skin abrasion, 10^7–10^8 CFUs, topical 20 µl of 5 mg/mL gel (0.5% hydroxypropylcellulose) twice daily for 4 days, eight mice per group, versus placebo-treated and untreated mice) | Histological morphology of the skin sections, four days after infection (S. aureus; hematoxylin and eosin, topical 5 mg/mL gel twice daily for 4 days, untreated and placebo groups lost nearly all epidermis) | Appearance of the infected skin, four days after infection (S. aureus; topical 5 mg/mL gel twice daily for 4 days, placebo blisters became larger) | Appearance of the infected skin, one day after infection (S. aureus; topical 5 mg/mL gel twice daily, placebo skin wet with blistering) | Bactericidal effect (time-killing curve) (S. aureus AB94004) | Inhibition of HIV-1 (HIV-1)
1 | FIGAIARLLSKIF-NH2 [BmKn2] | 12.5 µg/mL | 12.5 µg/mL | >100 µg/mL | >100 µg/mL | 6.25 µg/mL | 50 µg/mL | >100 µg/mL | >100 µg/mL | >100 µg/mL | >100 µg/mL | >100 µg/mL | – | – | – | – | – | –
2 | FIKRIARLLRKIF [Kn2-7] | – | – | – | – | – | – | – | – | – | – | – | clearly lower | recovered almost fully | healed | scabbed over | bactericidal effects | could inhibit HIV-1
